Laboratory results taken from patent US11752125B2, “Anti-neuroinflammatory and protective compounds in Achillea fragrantissima” (THE STATE OF ISRAEL MINISTRY OF AGRICULTURE & RURAL …, priority 2013, dated 2023).

What was measured:
IL-6 = IL-6 secretion from LPS-stimulated microglial cells (ELISA); type: cell-based, rat; conditions: LPS 100 ng/mL, 24 h
Protocol: 2. Plate microglial cells (3.5×10^4 cells/well) on a 24-well tissue culture plate, in DMEM containing 10% FBS, 2 mM glutamine, 100 U/ml penicillin and 100 micrograms/mL streptomycin;
Microglial cells were treated with different concentrations of TTF, followed by stimulation with LPS (100 ng/mL). After 24 h, conditioned media were collected and tested for cytokine levels by ELISA. Cell viability was determined using the crystal violet assay (FIG. 9C). Values represent the means±SEM (n=4 for each treatment).

[1] = system: LPS-activated splenocytes; experiment: Cytokine secretion from LPS-activated splenocytes (ELISA); type: cell-based, mouse; conditions: LPS 5 μg/mL; 24 h (IL-2) or 48 hr
Protocol: 1. Sacrifice Balb/c mice by decapitation. 2. Remove spleens from mice, pool, and squeeze to single cell suspension 3. Lyse red blood cells using lysis buffer, and wash cells several times. 4. Plate splenocytes (5×10^6 cells/well) on a 24-well tissue culture plate, in DMEM containing 10% FBS, 2 mM glutamine, 100 U/ml penicillin and 100 micrograms/mL streptomycin; 5. Treat cells with freshly diluted AcA of the invention; 6. Activate […] with lipopolysaccharide (LPS, 5 micrograms/mL); 7. Collect conditioned media for the measurement of cytokine levels; IL-2, after 24 h; IFNγ, TNF-α, IL-10, IL-12 and IL-6 after 48 hr. 8. Measure the levels of cytokines by ELISA; Ten naive Balb/c mice were sacrificed by decapitation. […] Spleens were removed from mice, pooled and squeezed to single cell suspension. Red blood cells were lysed using lysis buffer, cells were washed several times, and were plated (5×10^6 cells/well/ml) on a 24-well tissue culture plate. Cells were then stimulated with LPS (5 μg/mL) in the presence or absence of achillolide A. Conditioned media of the cells were collected for analysis: IL-2, after 24 h; IFNγ, TNF-α, IL-10, IL-12 and IL-6 after 48 hr. Cytokine levels were measured by ELISA in supernatants collected at the indicated time points. Data represent the mean±SEM from two different experiments performed in duplicates. […]

Row | SMILES | effect on LPS-elicited IL-6 secretion (IL-6) | effect on cytokine secretion (IL-2, IFNγ, TNF-α, IL-10, IL-12, IL-6) [1]
1 | COc1cc(-c2oc3cc(OC)c(OC)c(O)c3c(=O)c2O)ccc1O [TTF, 3,5,4′-trihydroxy-6,7,3′-trimethoxyflavone] | markedly inhibited | –
2 | C=C1CCC2=C(CO)C(=O)O[C@H]2/C=C(\C)[C@H](OC(C)=O)CC1=O [achillolide A] | – | Downregulates
